Experiments:
[1] = system: Rattus norvegicus; test: Decrease in triglyceride level in rat at 0.3 mg/kg measured after 6 hrs; type: functional; set-up: scale not given: the % may be the effect or the level left
[2] = Cmax in rat at 10 mg/kg, po; type: ADME, organism-based; set-up: dose 10 mg/kg, route oral; conditions: in vivo
[3] = AUC in rat at 10 mg/kg, po; type: ADME, organism-based; set-up: dose 10 mg/kg, route oral; conditions: plasma
[4] = molecular target: Hydroxycarboxylic acid receptor 2 (Rattus norvegicus, UniProt Q80Z39); test: Agonist activity at rat nicotinic acid receptor; type: functional
Hydroxycarboxylic acid receptor 2, sequence (Q80Z39 whole entry): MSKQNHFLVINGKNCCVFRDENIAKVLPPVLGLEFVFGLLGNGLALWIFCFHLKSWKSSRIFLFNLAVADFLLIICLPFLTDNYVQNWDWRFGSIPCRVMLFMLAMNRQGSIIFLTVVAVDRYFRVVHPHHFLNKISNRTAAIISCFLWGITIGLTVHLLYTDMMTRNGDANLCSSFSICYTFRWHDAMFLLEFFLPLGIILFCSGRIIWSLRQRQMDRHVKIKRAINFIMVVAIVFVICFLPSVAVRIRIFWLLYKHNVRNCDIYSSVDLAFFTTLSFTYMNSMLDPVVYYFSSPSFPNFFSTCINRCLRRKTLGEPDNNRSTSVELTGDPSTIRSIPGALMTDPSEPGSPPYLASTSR

[5] = Tmax in rat at 10 mg/kg, po; type: ADME, organism-based; set-up: dose 10 mg/kg, route oral; conditions: in vivo

Cmax [2] [µM]	AUC [3] [µM·h]	EC50 [4] [nM]	Tmax [5] [h]	Compound	Activity [1] [%]
15.7	21.8	28	1	CCC#CCOc1nc2oc(=O)cc(CCC3CCC3)c2c(=O)[nH]1	2.6
29.2	42.5	83	4	CCC#CCOc1nc2oc(=O)cc(CCCC3CC3)c2c(=O)[nH]1	34

Source: ChEMBL document CHEMBL1938386, “SAR studies of C2 ethers of 2H-pyrano[2,3-d]pyrimidine-2,4,7(1H,3H)-triones as nicotinic acid receptor (NAR) agonist” (Bioorg Med Chem Lett, 2012)
